Assay results from PubChem BioAssay (NCI).
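1) Cells in 96-well plates. 2) Compound, 48 h, 5 concentrations. 3) Linear interpolation between surrounding doses. 4) Unreached endpoint = highest concentration. TGI is the concentration that stops growth completely.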

Key:
Assay in all cases: NCI anticancer screen, dose series, 48 h
A549 NSCLC = tested on: A549 NSCLC
KM12 colon = tested on: KM12 colon
OVCAR-5 ovarian = tested on: OVCAR-5 ovarian
RXF 393 renal = tested on: RXF 393 renal
ACHN renal = tested on: ACHN renal
SR leukemia = tested on: SR leukemia
SN12C renal = tested on: SN12C renal
COLO 205 colon = tested on: COLO 205 colon
SF-295 CNS = tested on: SF-295 CNS
U251 CNS = tested on: U251 CNS
NCI-H460 lung = tested on: NCI-H460 lung
NCI-H23 lung = tested on: NCI-H23 lung
HOP-62 NSCLC = tested on: HOP-62 NSCLC
M14 melanoma = tested on: M14 melanoma
IGROV1 ovarian = tested on: IGROV1 ovarian
LOX IMVI melanoma = tested on: LOX IMVI melanoma
UO-31 renal = tested on: UO-31 renal
HT29 colon = tested on: HT29 colon
HCT-15 colon = tested on: HCT-15 colon
T-47D breast = tested on: T-47D breast
MDA-MB-231 breast = tested on: MDA-MB-231 breast
786-0 renal = tested on: 786-0 renal
SK-MEL-28 melanoma = tested on: SK-MEL-28 melanoma
BT-549 breast = tested on: BT-549 breast
NCI/ADR-RES ovarian = tested on: NCI/ADR-RES ovarian
DU-145 prostate = tested on: DU-145 prostate
SW-620 colon = tested on: SW-620 colon
CAKI-1 renal = tested on: CAKI-1 renal
SK-MEL-5 melanoma = tested on: SK-MEL-5 melanoma
HS 578T breast = tested on: HS 578T breast
OVCAR-4 ovarian = tested on: OVCAR-4 ovarian
OVCAR-3 ovarian = tested on: OVCAR-3 ovarian
K-562 leukemia = tested on: K-562 leukemia
UACC-257 melanoma = tested on: UACC-257 melanoma
NCI-H226 lung = tested on: NCI-H226 lung
MALME-3M melanoma = tested on: MALME-3M melanoma
HCC-2998 colon = tested on: HCC-2998 colon
SF-268 CNS = tested on: SF-268 CNS
NCI-H522 lung = tested on: NCI-H522 lung
CCRF-CEM leukemia = tested on: CCRF-CEM leukemia
A498 renal = tested on: A498 renal
OVCAR-8 ovarian = tested on: OVCAR-8 ovarian
SK-MEL-2 melanoma = tested on: SK-MEL-2 melanoma
MDA-MB-435 = tested on: MDA-MB-435
RPMI-8226 leukemia = tested on: RPMI-8226 leukemia
HOP-92 NSCLC = tested on: HOP-92 NSCLC
MOLT-4 leukemia = tested on: MOLT-4 leukemia
PC-3 prostate = tested on: PC-3 prostate
SK-OV-3 ovarian = tested on: SK-OV-3 ovarian
HCT-116 colon = tested on: HCT-116 colon
SNB-19 CNS = tested on: SNB-19 CNS
HL-60(TB) leukemia = tested on: HL-60(TB) leukemia
EKVX NSCLC = tested on: EKVX NSCLC
SNB-75 CNS = tested on: SNB-75 CNS
MDA-N = tested on: MDA-N
SF-539 CNS = tested on: SF-539 CNS
UACC-62 melanoma = tested on: UACC-62 melanoma

Question: Which TGI (A549 NSCLC) does the source give for `COc1ccc(O)c(/C(C)=N/NC(=S)N(C)C)c1` here?
Answer: > 100 µM

Question: And the TGI (KM12 colon)?
Answer: > 100 µM

Question: What about the TGI (OVCAR-5 ovarian) of the same compound?
Answer: > 100 µM

Question: And the TGI (RXF 393 renal)?
Answer: > 100 µM

Question: What about the TGI (ACHN renal) of the same compound?
Answer: > 100 µM

Question: What about the TGI (SR leukemia) of the same compound?
Answer: > 100 µM

Question: And the TGI (SN12C renal)?
Answer: > 100 µM

Question: And the TGI (COLO 205 colon)?
Answer: > 100 µM

Question: What about the TGI (SF-295 CNS) of the same compound?
Answer: > 100 µM

Question: And the TGI (U251 CNS)?
Answer: > 100 µM

Question: And the TGI (NCI-H460 lung)?
Answer: > 100 µM

Question: And the TGI (NCI-H23 lung)?
Answer: > 88.5 µM

Question: And the TGI (HOP-62 NSCLC)?
Answer: > 100 µM

Question: And the TGI (M14 melanoma)?
Answer: > 100 µM

Question: And the TGI (IGROV1 ovarian)?
Answer: > 100 µM

Question: And the TGI (LOX IMVI melanoma)?
Answer: 22.9 µM

Question: And the TGI (UO-31 renal)?
Answer: > 100 µM

Question: And the TGI (HT29 colon)?
Answer: > 100 µM

Question: What about the TGI (HCT-15 colon) of the same compound?
Answer: > 100 µM

Question: And the TGI (T-47D breast)?
Answer: > 100 µM

Question: And the TGI (MDA-MB-231 breast)?
Answer: > 100 µM

Question: And the TGI (786-0 renal)?
Answer: > 100 µM

Question: And the TGI (SK-MEL-28 melanoma)?
Answer: > 100 µM

Question: What about the TGI (BT-549 breast) of the same compound?
Answer: > 100 µM

Question: And the TGI (NCI/ADR-RES ovarian)?
Answer: > 100 µM

Question: What about the TGI (DU-145 prostate) of the same compound?
Answer: > 100 µM

Question: What about the TGI (SW-620 colon) of the same compound?
Answer: > 100 µM

Question: What about the TGI (CAKI-1 renal) of the same compound?
Answer: > 94.5 µM

Question: And the TGI (SK-MEL-5 melanoma)?
Answer: > 100 µM

Question: What about the TGI (HS 578T breast) of the same compound?
Answer: > 100 µM

Question: What about the TGI (OVCAR-4 ovarian) of the same compound?
Answer: 54.3 µM

Question: What about the TGI (OVCAR-3 ovarian) of the same compound?
Answer: > 100 µM

Question: And the TGI (K-562 leukemia)?
Answer: > 100 µM

Question: And the TGI (UACC-257 melanoma)?
Answer: > 100 µM

Question: And the TGI (NCI-H226 lung)?
Answer: > 100 µM

Question: And the TGI (MALME-3M melanoma)?
Answer: > 100 µM

Question: And the TGI (HCC-2998 colon)?
Answer: > 100 µM

Question: And the TGI (SF-268 CNS)?
Answer: > 100 µM

Question: And the TGI (NCI-H522 lung)?
Answer: > 100 µM

Question: What about the TGI (CCRF-CEM leukemia) of the same compound?
Answer: > 100 µM

Question: And the TGI (A498 renal)?
Answer: > 100 µM

Question: And the TGI (OVCAR-8 ovarian)?
Answer: > 100 µM

Question: What about the TGI (SK-MEL-2 melanoma) of the same compound?
Answer: > 100 µM

Question: What about the TGI (MDA-MB-435) of the same compound?
Answer: > 100 µM

Question: What about the TGI (RPMI-8226 leukemia) of the same compound?
Answer: > 100 µM

Question: What about the TGI (HOP-92 NSCLC) of the same compound?
Answer: > 100 µM

Question: What about the TGI (MOLT-4 leukemia) of the same compound?
Answer: > 100 µM

Question: What about the TGI (PC-3 prostate) of the same compound?
Answer: > 100 µM

Question: What about the TGI (SK-OV-3 ovarian) of the same compound?
Answer: > 100 µM

Question: What about the TGI (HCT-116 colon) of the same compound?
Answer: > 100 µM

Question: What about the TGI (SNB-19 CNS) of the same compound?
Answer: > 100 µM

Question: What about the TGI (HL-60(TB) leukemia) of the same compound?
Answer: > 100 µM

Question: What about the TGI (EKVX NSCLC) of the same compound?
Answer: > 100 µM

Question: What about the TGI (SNB-75 CNS) of the same compound?
Answer: > 100 µM

Question: What about the TGI (MDA-N) of the same compound?
Answer: > 100 µM

Question: What about the TGI (SF-539 CNS) of the same compound?
Answer: > 100 µM

Question: What about the TGI (UACC-62 melanoma) of the same compound?
Answer: > 71.6 µM
